# Experimental data taken from patent publication US20260184691A1, “INHIBITORS AND DEGRADERS OF PIP4K PROTEIN” (Larkspur Biosciences, Inc., priority 2022, published 2026).
# Molecular target: T1, endogenous PIP4K2C C-terminally tagged with HiBiT peptide in MOLT-4 cells (Homo sapiens, UniProt Q8TBX8)
# T1 construct: to C-terminally tag endogenous PIP4K2C with HiBiT peptide; host or cells: MOLT-4 (CRISPR-Cas9 knock-in clone)
# T1 sequence (Q8TBX8 1-421): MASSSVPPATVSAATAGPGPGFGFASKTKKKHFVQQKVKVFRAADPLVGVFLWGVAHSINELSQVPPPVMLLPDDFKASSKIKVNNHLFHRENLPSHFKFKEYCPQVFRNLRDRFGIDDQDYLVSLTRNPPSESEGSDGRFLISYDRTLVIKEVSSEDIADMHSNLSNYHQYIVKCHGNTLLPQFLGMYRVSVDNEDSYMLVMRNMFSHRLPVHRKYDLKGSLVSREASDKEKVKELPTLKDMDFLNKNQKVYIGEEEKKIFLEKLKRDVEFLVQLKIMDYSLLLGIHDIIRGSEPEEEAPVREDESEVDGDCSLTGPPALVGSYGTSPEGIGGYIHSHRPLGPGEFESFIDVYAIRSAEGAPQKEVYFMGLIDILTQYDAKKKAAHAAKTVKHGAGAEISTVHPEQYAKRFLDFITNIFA
# Experiment: HiBiT PIP4K2C degradation assay in MOLT-4 cells
# Assay type: cell-based
# Settings: 24 hours, 10-point dose response, top concentration 10 micromolar, read-out: HiBIT-degradation MOLT4 PIP4k2C 24 hours DC50
# How it was run: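 Cells bearing C-terminal HiBiT knock-in were exposed to a 10-point, 3-fold dilution series (top 10 micromolar, duplicate) for 24 h at 37C, 5% CO2. Remaining tagged protein read by lytic HiBiT luminescence; DC50 from Hill-equation fit.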
row,SMILES,DC50 [nM]
1,"O=C1CCC(Nc2ccc(N3CCC(CN4CCC5(CC4)CCN(c4cncc(Nc6ncc(Cl)c(-c7ccc(Cl)cc7)n6)c4)C5=O)CC3)cc2)C(=O)N1 (stereo not drawn) [Compound 174, 3-((4-(4-((2-(5-((5-chloro-4-(4-chlorophenyl)pyrimidin-2-yl)amino)pyridin-3-yl)-1-oxo-2,8-diazaspiro[4.5]decan-8-yl)methyl)piperidin-1-yl)phenyl)amino)piperidine-2,6-dione]",1000 to 5000
2,"O=C1CCC(Nc2ccc(C3CCN(CC(=O)N4CCC5(CC4)CCN(c4cncc(Nc6ncc(Cl)c(-c7cccc(N8CCCC8)c7)n6)c4)C5=O)CC3)cc2)C(=O)N1 (stereo not drawn) [Compound 179, 3-((4-(1-(2-(2-(5-((5-chloro-4-(3-(pyrrolidin-1-yl)phenyl)pyrimidin-2-yl)amino)pyridin-3-yl)-1-oxo-2,8-diazaspiro[4.5]decan-8-yl)-2-oxoethyl)piperidin-4-yl)phenyl)amino)piperidine-2,6-dione]",< 500
3,"O=C1CCC(Nc2ccc(N3CCC(O)(CC(=O)N4CCC5(CC4)CCN(c4cncc(Nc6ncc(Cl)c(-c7cccc(-c8ccccc8)c7)n6)c4)C5=O)CC3)cc2)C(=O)N1 (stereo not drawn) [Compound 180, 3-[4-[4-[2-[2-[5-[[5-chloro-4-(3-phenylphenyl)pyrimidin-2-yl]amino]-3-pyridyl]-1-oxo-2,8-diazaspiro[4.5]decan-8-yl]-2-oxo-ethyl]-4-hydroxy-1-piperidyl]anilino]piperidine-2,6-dione]",< 500
4,"O=C1CCC(Nc2ccc(N3CCC(CC(=O)N4CCC5(CC4)CCN(c4cncc(Nc6ncc(Cl)c(N7CCOC(c8ccccc8)C7)n6)c4)C5=O)CC3)cc2)C(=O)N1 (stereo not drawn) [Compound 181, 3-((4-(4-(2-(2-(5-((5-chloro-4-(2-phenylmorpholino)pyrimidin-2-yl)amino)pyridin-3-yl)-1-oxo-2,8-diazaspiro[4.5]decan-8-yl)-2-oxoethyl)piperidin-1-yl)phenyl)amino)piperidine-2,6-dione]",< 500
5,"O=C1CCC(Nc2ccc(N3CCC(N4CCN(CCC(=O)Nc5cncc(Nc6ncc(Cl)c(-c7cccc(-c8ccccc8)c7)n6)c5)CC4)CC3)cc2)C(=O)N1 (stereo not drawn) [Compound 183, N-(5-((4-([1,1′-biphenyl]-3-yl)-5-chloropyrimidin-2-yl)amino)pyridin-3-yl)-3-(4-(1-(4-((2,6-dioxopiperidin-3-yl)amino)phenyl)piperidin-4-yl)piperazin-1-yl)propanamide]",< 500
6,"O=C1CCC(Nc2ccc(N3CCC(CC(=O)N4CCC5(CC4)CCN(c4cncc(Nc6ncc(Cl)c(-c7cccc(N8CCCC8)c7)n6)c4)C5=O)CC3)cc2)C(=O)N1 (stereo not drawn) [Compound 184, 3-((4-(4-(2-(2-(5-((5-chloro-4-(3-(pyrrolidin-1-yl)phenyl)pyrimidin-2-yl)amino)pyridin-3-yl)-1-oxo-2,8-diazaspiro[4.5]decan-8-yl)-2-oxoethyl)piperidin-1-yl)phenyl)amino)piperidine-2,6-dione]",< 500
7,"O=C1CCC(Nc2ccc(C3CCN(CC(=O)N4CCC5(CC4)CCN(c4cncc(Nc6ncc(Cl)c(-c7cccc(N8CCCCC8)c7)n6)c4)C5=O)CC3)cc2)C(=O)N1 (stereo not drawn) [Compound 185, 3-[4-[1-[2-[2-[5-[[5-chloro-4-[3-(1-piperidyl)phenyl]pyrimidin-2-yl]amino]-3-pyridyl]-1-oxo-2,8-diazaspiro[4.5]decan-8-yl]-2-oxo-ethyl]-4-piperidyl]anilino]piperidine-2,6-dione]",< 500
8,"O=C1CCC(Nc2ccc(C3CCN(CC(=O)N4CCC5(CC4)CCN(c4cncc(Nc6ncc(Cl)c(N7CCOC(c8ccccc8)C7)n6)c4)C5=O)CC3)cc2)C(=O)N1 (stereo not drawn) [Compound 186, 3-[4-[1-[2-[2-[5-[[5-chloro-4-(2-phenylmorpholin-4-yl)pyrimidin-2-yl]amino]-3-pyridyl]-1-oxo-2,8-diazaspiro[4.5]decan-8-yl]-2-oxo-ethyl]-4-piperidyl]anilino]piperidine-2,6-dione]",< 500
9,"O=C1CCC(Nc2ccc(N3CCC(CN4CCC(C(=O)Nc5cncc(Nc6ncc(Cl)c(-c7cccc(-c8ccccc8)c7)n6)c5)CC4)CC3)cc2)C(=O)N1 (stereo not drawn) [Compound 187, N-(5-((4-([1,1′-biphenyl]-3-yl)-5-chloropyrimidin-2-yl)amino)pyridin-3-yl)-1-((1-(4-((2,6-dioxopiperidin-3-yl)amino)phenyl)piperidin-4-yl)methyl)piperidine-4-carboxamide]",< 500

# Results, then the compound that gave them:
row,DC50 [nM],SMILES
1,< 500,"O=C1CCC(Nc2ccc(N3CCC(CCN4CCC5(CC4)CCN(c4cncc(Nc6ncc(Cl)c(N7CCCCC7)n6)c4)C5=O)CC3)cc2)C(=O)N1 (stereo not drawn) [Compound 173, 3-((4-(4-(2-(2-(5-((5-chloro-4-(piperidin-1-yl)pyrimidin-2-yl)amino)pyridin-3-yl)-1-oxo-2,8-diazaspiro[4.5]decan-8-yl)ethyl)piperidin-1-yl)phenyl)amino)piperidine-2,6-dione]"
2,< 500,"O=C1CCC(Nc2ccc(N3CCC(CC(=O)N4CCC5(CC4)CCN(c4cncc(Nc6ncc(Cl)c(N7CCC[C@H](O)C7)n6)c4)C5=O)CC3)cc2)C(=O)N1 (stereo partly drawn) [Compound 175, 3-((4-(4-(2-(2-(5-((5-chloro-4-((S)-3-hydroxypiperidin-1-yl)pyrimidin-2-yl)amino)pyridin-3-yl)-1-oxo-2,8-diazaspiro[4.5]decan-8-yl)-2-oxoethyl)piperidin-1-yl)phenyl)amino)piperidine-2,6-dione]"
3,< 500,"O=C1CCC(Nc2ccc(N3CCC(CC(=O)N4CCC5(CC4)CCN(c4cncc(Nc6ncc(Cl)c(N7CCC[C@@H](O)C7)n6)c4)C5=O)CC3)cc2)C(=O)N1 (stereo partly drawn) [Compound 176, 3-((4-(4-(2-(2-(5-((5-chloro-4-((R)-3-hydroxypiperidin-1-yl)pyrimidin-2-yl)amino)pyridin-3-yl)-1-oxo-2,8-diazaspiro[4.5]decan-8-yl)-2-oxoethyl)piperidin-1-yl)phenyl)amino)piperidine-2,6-dione]"
4,< 500,"O=C1CCC(Nc2ccc(N3CCC(CC(=O)N4CCC5(CC4)CCN(c4cncc(Nc6ncc(Cl)c(N7CCC[C@@H](C(F)(F)F)C7)n6)c4)C5=O)CC3)cc2)C(=O)N1 (stereo partly drawn) [Compound 177, 3-((4-(4-(2-(2-(5-((5-chloro-4-((R)-3-(trifluoromethyl)piperidin-1-yl)pyrimidin-2-yl)amino)pyridin-3-yl)-1-oxo-2,8-diazaspiro[4.5]decan-8-yl)-2-oxoethyl)piperidin-1-yl)phenyl)amino)piperidine-2,6-dione]"
5,< 500,"O=C1CCC(Nc2ccc(N3CCC(CC(=O)N4CCC5(CC4)CCN(c4cncc(Nc6ncc(Cl)c(N7CCC[C@H](C(F)(F)F)C7)n6)c4)C5=O)CC3)cc2)C(=O)N1 (stereo partly drawn) [Compound 178, 3-((4-(4-(2-(2-(5-((5-chloro-4-((S)-3-(trifluoromethyl)piperidin-1-yl)pyrimidin-2-yl)amino)pyridin-3-yl)-1-oxo-2,8-diazaspiro[4.5]decan-8-yl)-2-oxoethyl)piperidin-1-yl)phenyl)amino)piperidine-2,6-dione]"
6,< 500,"O=C1CCC(Nc2ccc(N3CCC(CC(=O)N4CCC5(CC4)CCN(c4cncc(Nc6ncc(Cl)c(-c7cccc(N8CCCCC8)c7)n6)c4)C5=O)CC3)cc2)C(=O)N1 (stereo not drawn) [Compound 182, 3-((4-(4-(2-(2-(5-((5-chloro-4-(3-(piperidin-1-yl)phenyl)pyrimidin-2-yl)amino)pyridin-3-yl)-1-oxo-2,8-diazaspiro[4.5]decan-8-yl)-2-oxoethyl)piperidin-1-yl)phenyl)amino)piperidine-2,6-dione]"
